Data on seven compounds can be found in patent US6180615A, “Propargyl phenyl ether A2A receptor agonists” (CV Therapeutics, Inc., priority 1999, dated 2001).

As usually defined, the Ki is the dissociation constant of the complex between target and ligand, obtained from inhibition or displacement. Low readings indicate a stronger hold on the target, high ones a looser hold on the target.

Each structure is given as a SMILES string.

This assay deals with T1, A2A receptor (Sus scrofa, UniProt K9IW67).
T1 construct: from tissue; host or cells: pig striatum membranes
T1 sequence (K9IW67 1-409): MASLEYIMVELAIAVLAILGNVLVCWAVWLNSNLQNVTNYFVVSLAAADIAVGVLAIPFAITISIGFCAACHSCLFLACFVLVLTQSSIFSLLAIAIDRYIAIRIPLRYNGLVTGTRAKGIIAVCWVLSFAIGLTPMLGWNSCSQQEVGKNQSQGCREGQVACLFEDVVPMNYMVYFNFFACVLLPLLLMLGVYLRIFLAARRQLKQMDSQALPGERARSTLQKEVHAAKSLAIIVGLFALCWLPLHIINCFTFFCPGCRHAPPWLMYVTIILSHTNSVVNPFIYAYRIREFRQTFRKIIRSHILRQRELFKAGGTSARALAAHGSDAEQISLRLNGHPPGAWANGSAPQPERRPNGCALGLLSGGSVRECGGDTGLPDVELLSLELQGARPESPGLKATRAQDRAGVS
The experiment in a line: affinity for the A2A receptor in a pig striatum membrane prep (displacement of tritiated antagonist ZM 241385). The format is binding. To be noted: pig striatal membranes, adenosine deaminase, 50 mM Tris pH 7.4, 2 nM tritiated ZM 241385, 23° C. for 2 h. On the procedure: Compositions of this invention were assayed to determine their affinity for the A2A receptor in a pig striatum membrane prep. 0.2 mg of pig striatal membranes were treated with adenosine deaminase and 50 mM Tris buffer (pH=7.4) followed by mixing. To the pig membranes was added 2 μL of serially diluted DMSO stock solution of the compounds of this invention at concentrations ranging from 100 μM to 10 nM or the control received 2 μL of DMSO alone, then the tritiated antagonist ZM 241385 in Tris buffer (50 mM, pH of 7.4) was added to achieve a final concentration of 2 nM . After incubation at 23° C. for 2 h, the solutions were filtered using a membrane harvester using multiple washing of the membranes (3×). The filter disks where counted in scintillation cocktail affording the amount of displacement of tritiated ZM by the competitive binding compositions of this invention. Greater than a 5 point curve was used to generate IC50's and the number of experiments (n) is indicated in the column marked in Table 1 below.
On to `Nc1nc(C#CCOc2ccccc2)nc2c1ncn2[C@@H]1O[C@H](CO)[C@@H](O)[C@H]1O` [Compound 11, (4S,2R,3R,5R)-2-[6-amino-2-(3-phenoxyprop-1-ynyl)purin-9-yl]-5-(hydroxymethyl)oxolane-3,4-diol], for which the Ki is 10 to 100 nM.

`Nc1nc(C#CCOc2ccc(-c3ccccc3)cc2)nc2c1ncn2[C@@H]1O[C@H](CO)[C@@H](O)[C@H]1O` [Compound 13, (4S,2R,3R,5R)-2-{6-amino-2-[3-(4-phenylphenoxy)prop-1-ynyl]purin-9-yl}-5-(hydroxymethyl)oxolane-3,4-diol] had a Ki of 1000 to 10000 nM.

As for `Nc1nc(C#CCOc2ccccc2-c2ccccc2)nc2c1ncn2[C@@H]1O[C@H](CO)[C@@H](O)[C@H]1O` [Compound 10, (4S,2R,3R,5R)-2-{6-amino-2-[3-(2-phenylphenoxy)prop-1-ynyl]purin-9-yl}-5-(hydroxymethyl)oxolane-3,4-diol], the inhibition constant Ki lay in the range of 100 to 1000 nM.

`CC(C)(C)c1cc(OCC#Cc2nc(N)c3ncn([C@@H]4O[C@H](CO)[C@@H](O)[C@H]4O)c3n2)cc(C(C)(C)C)c1` [Compound 16, (4S,2R,3R,5R)-2-(6-amino-2-{3-[3,5-bis(tert-butyl)phenoxy]prop-1-ynyl}purin-9-yl)-5-(hydroxymethyl)oxolane-3,4-diol] had an inhibition constant (Ki) of 1000 to 10000 nM.

`Nc1nc(C#CCOc2cccc3c2OCO3)nc2c1ncn2[C@@H]1O[C@H](CO)[C@@H](O)[C@H]1O` [Compound 15, 2-[2-(3-(2H-benzo[2,3-d]1,3-dioxolen-4-yloxy)prop-1-ynyl)-6-aminopurin-9-yl](4S,2R,3R,5R)-5-(hydroxymethyl)oxolane-3,4-diol] had a Ki of 10 to 100 nM.

For `Nc1nc(C#CCOc2ccccc2Cc2ccccc2)nc2c1ncn2[C@@H]1O[C@H](CO)[C@@H](O)[C@H]1O` [Compound 14], the Ki was in the range of 100 to 1000 nM.

The compound `N#Cc1ccc(OCC#Cc2nc(N)c3ncn([C@@H]4O[C@H](CO)[C@@H](O)[C@H]4O)c3n2)cc1` [Compound 12, 4-(3-{9-[(4S,2R,3R,5R)-3,4-dihydroxy-5-(hydroxymethyl)oxolan-2-yl]-6-aminopurin-2-yl}prop-2-ynyloxy)benzenecarbonitrile] yielded an inhibitory constant (Ki) of 100 to 1000 nM.
